Test results: patent US10849956B2, “Glycopeptide compositions” (priority 2014, dated 2020)
Values after ≈ are worked out from the molar mass of the structure shown. Where two headings read alike, the source gives them in different places.

What was measured:
[1] = tested on: Streptococcus pnemoniae ATCC 49619; assay: Antibacterial susceptibility testing, broth dilution method (CLSI); assay type: cell-based
Description: (§1) Testing was performed using broth dilution method according to Clinical and Laboratory Standards Institute (CLSI) guidelines M100-S23/S24; M07-A9, the disclosure of which is herein incorporated by reference.
(§2) The antibiotic activity of eight aqueous pharmaceutical compositions was determined and compared to the activity of the injectable reference finished product, Vancocin, manufactured by Flynn Pharma Ltd. Antibiotic activity was determined against quality control strains: Staphylococcus aureus ATCC 29213, Enterococcus faecalis ATCC 29212 and Streptococcus pnemoniae ATCC 49619.

[2] = tested on: Enterococcus faecalis ATCC 29212; assay: as above; assay type: cell-based; conditions: ATCC29212, Table 6, solutions stored at 25 degrees Celsius for the test period in days indicated
Description: as §1, §2

[3] = tested on: Staphylococcus aureus ATCC 29213; assay: as above; assay type: cell-based; conditions: ATCC29213, Table 6, solutions stored at 25 degrees Celsius for the test period in days indicated
Description: as §1, §2

[4] = cited from earlier work
[5] = multiple dosing of 500 mg Vancomycin infused over 30 minutes

Question: With `CC1(C)S[C@@H]2[C@H](NC(=O)[C@H](N)c3ccc(O)cc3)C(=O)N2[C@H]1C(=O)O` [Amoxicillin USP standard, Amoxicillin] as the molecule, how does the MIC ([1]; Table 6, solutions stored at 25 degrees Celsius for the test period in days indicated, read-out: Streptococcus pneumoniae MIC) read?
Answer: 0.06 µg/mL (≈ 0.164 µM)

Question: And the MIC [2]?
Answer: 0.5 µg/mL (≈ 1.37 µM)

Question: And the MIC [3]?
Answer: 1 µg/mL (≈ 2.74 µM)

Question: With `CN[C@H](CC(C)C)C(=O)N[C@H]1C(=O)N[C@@H](CC(N)=O)C(=O)N[C@H]2C(=O)N[C@H]3C(=O)N[C@H](C(=O)N[C@H](C(=O)O)c4cc(O)cc(O)c4-c4cc3ccc4O)[C@H](O)c3ccc(c(Cl)c3)Oc3cc2cc(c3O[C@@H]2O[C@H](CO)[C@@H](O)[C@H](O)[C@H]2O[C@H]2C[C@](C)(N)[C@H](O)[C@H](C)O2)Oc2ccc(cc2Cl)[C@H]1O` [Vancomycin USP standard, Vancomycin] as the molecule, how does the MIC ([1]; read-out: Streptococcus pneumoniae MIC (μg/mL)) read?
Answer: 0.125 µg/mL (≈ 0.0863 µM)

Question: Which “mean plasma concentration immediately after infusion” value ([4]; intravenous infusion of 1 gram Vancomycin (15 mg/kg) over 60 minutes) does the source give for `CN[C@H](CC(C)C)C(=O)N[C@H]1C(=O)N[C@@H](CC(N)=O)C(=O)N[C@H]2C(=O)N[C@H]3C(=O)N[C@H](C(=O)N[C@@H](C(=O)O)c4cc(O)cc(O)c4-c4cc3ccc4O)[C@H](O)c3ccc(c(Cl)c3)Oc3cc2cc(c3O[C@@H]2O[C@@H](CO)[C@@H](O)[C@H](O)[C@@H]2O[C@@H]2C[C@](C)(N)[C@H](O)[C@@H](C)O2)Oc2ccc(cc2Cl)[C@H]1O` [Vancomycin] here?
Answer: 63 micrograms/mL

Question: What about the “mean plasma concentration at the completion of infusion” value [4, 5] of the same molecule?
Answer: about 49 microgram/mL

Question: And the “mean plasma concentration six hours after infusion” value [4, 5]?
Answer: about 10 microgram/mL

Question: And the “mean plasma concentration two hours after infusion” value [4, 5]?
Answer: about 19 microgram/mL
